Measured values as given in patent US10709907B2, “Taurine and aloe synergistic anti-irritant compositions and methods” (Colgate-Palmolive Company, priority 2016, dated 2020).

Key:
[1] = system: In vitro skin samples (MatTek EpiDerm); experiment: Cytotoxicity Assay (MTT), cell viability of reconstructed human epidermis; assay type: cell-based; details: for MTT (% cell viability): untreated Control = 100
Procedure: (§1) Two in vitro reconstructed human epidermis models were employed to assess the relative irritation potential of selected test samples, the Cytotoxicity Assay (MTT) and the Irritation Assay (IL-1α Release Assay), described below.
Cytotoxicity Assay (MTT):
Cell damage was evaluated by assessing mitochondrial metabolic activity using 3-[4,5-dimethylthiazol-2-yl]-2,5-diphenyltetrazolium bromide (MTT-reduction assay) upon exposure to the test sample. MTT solution was prepared as 1.0 mg/ml in Phosphate Buffered Saline (PBS) just before usage. In vitro skin samples (MatTek EpiDerm) were treated topically with the test sample for 1 hour in a tissue culture incubator. Following the incubation, skin samples were washed with PBS and placed in 24 well tissue culture plates, and 500 μl of the MTT solutions were added to each well and incubated at 37° C. for 2 hours. The cell survivability was analyzed by measuring the ability of the cell's mitochondria to reduce the colorless MTT to a colored formazan crystalline end product. The reaction was terminated by the removal of the MTT solution from the wells. Addition of 1.0 mL of 0.04M HCl in isopropanol to each well was used to dissolve the intracellular MTT formazan crystals. The contents of each well were mixed gently in an orbital shaker at room temperature for 1 hour and the absorbency at 570 nm was measured by an ELISA plate reader (SpectraMax M5 Multi-Mode Microplate Readers, Molecular Devices, California).

[2] = system: IL-1α release, 3D EpiDerm skin models (SIT-200 skin irritation model); experiment: Irritation Assay (IL-1α Release Assay) by ELISA; assay type: cell-based, human; details: untreated Control = 100
Text: as §1
Irritation Assay (IL-1α Release Assay):
To document the skin irritation of Antiperspirant Active Ingredients, we have conducted in vitro experiments using 3D EpiDerm skin models (SIT-200 skin irritation model, MatTek Corporation, Ashland, Mass. 01721). In vitro skin samples were treated topically with the test compound for 1 hour in tissue culture incubator. Following the incubation, skin samples were washed with PBS and placed in a culture medium and continue to incubate for 24 hours. Cell culture media was collected for IL-1α release assay. Higher the IL-1a release means higher the irritation potential. IL-1α release was analyzed by ELISA assay kit (Invitrogen, Grand Island, N.Y. 14072) and (R&D Systems, Minneapolis, Minn. 55413).

Structure (SMILES) | MTT (% cell viability) ([1]; Example 3, formulated samples) | IL-1α (percentage compared to untreated tissue) ([2]; Example 3, formulated samples) | MTT (% cell viability) ([1]; Example 1, topical treatment 1 hour) | reduction of cell viability compared to untreated tissue (MTT) ([1]; Example 2) | MTT (% cell viability) ([1]; Example 2, topical treatment 1 hour) | IL-1α (percentage of the test value for the Control) ([2]; Example 1, topical treatment 1 hour, then 24 hours in culture medium) | IL-1α (percentage compared to untreated tissue) ([2]; Example 2, topical treatment 1 hour, then 24 hours in culture medium)
O.O.O.O.O.O.[Al+3].[Cl-].[Cl-].[Cl-] [12% AlCl3, Aluminum Chloride Hexaaqua] | 99% | 234% | – | – | – | – | –
O.O.O.O.O.O.[Al+3].[Cl-].[Cl-].[Cl-] [14% AlCl3, Aluminum Chloride Hexaaqua] | – | – | 78% | 15-20% | 84% | 345% | 594%
